Patent publication US20060241026A1, “Novel cyclic peptides and use thereof as anti-microbial agents” (priority 2002, published 2006)
Where two headings read alike, the source gives them in different places. Positions of bridges follow the written chain, without caps; N, C: chain ends. Residues, ends and D or L forms follow the SMILES beside them. No end group written: not given here.

Columns and labels:
Type in all cases: cell-based
[1] = tested on: Micrococcus luteus; settings: 24 h
Experimental: (§1) The activity of the synthetic peptides was tested with respect to the Gram+ bacteria Mycrocossus luteus, Staphylococcus aureus, Staphylococcus epidermidis and Bacillus megaterium. The activities were determined according to the protocol described by HANCOCK et al. (http://www.interchg.ubc.ca/bobh/methods.htm)
(§2) The MIC was determined for each peptide by inhibition of growth in liquid medium. Doubling dilution of peptide was realized in the wells of a Microtest plate in a volume of 10 μl. The bacteria were grown in MUELLER HINTON BROTH (MHB, Difco) liquid medium. During the exponential growth phase, a solution with an optical density of 0.001 at 600 nm was produced, and 100 μl of this suspension were added to each well. The incubation lasted 24 h at 30° C., and the optical densities of each well were then measured at 600 nm. The value of the MIC corresponds to the first well for which the optical density had not changed.
(§3) The dishes were incubated for 24 h at 30° C. The value of the MBC corresponds to the lowest concentration of the peptide for which no colony developed.

[2] = tested on: Gram+ and Gram− bacteria and a filamentous fungus; assay: Antibiotic tests on Gram+ and Gram- bacteria and on a filamentous fungus, summary in words; settings: compared with the native molecule or the minimal loop
Experimental: as §1, §2, §3
The anti-fungal activity was determined by calculating the MIC in a growth inhibition assay for the shrimp parasite fungus Fusarium oxysporum, in liquid phase, according to the protocol described by FELHBAM et al. (J. Biol. Chem., 1994, 269:33159-63). Doubling dilutions of each peptide were realized in the wells of a Microtest plate in a volume of 10 μl. 90 μl of spores resuspended in potato dextrose broth medium (DIFCO) at a final concentration of 10^4 spores/ml were added to each well. The growth inhibition was measured after incubation for 24 h at 25° C. in the dark, by observation under an optical microscope and measurement of the increase in OD at 600 nm. The value of the MIC corresponds to the first well for which the optical density had not increased.
Using the 3-D structure of the native molecule as a basis, said molecule was fractionated into 17 elements (table I). All these fragments were synthesized and their activities were assayed using antibiotic tests on Gram+ and Gram− bacteria and on a filamentous fungus. The minimum inhibitory concentration (MIC) and minimum […] concentration (MBC) of each peptide were thus determined and were compared with those of the native molecule.

[3] = tested on: Staphylococcus aureus
Experimental: as §1, §2, §3

[4] = tested on: Micrococcus lysodeikticus
Experimental: as §2, §3

Compound: CC[C@H](C)[C@@H]1NC(=O)[C@H](CO)NC(=O)[C@H](CCCCN)NC(=O)[C@@H](NC(=O)[C@H](Cc2c[nH]cn2)NC(=O)[C@H](CCCNC(=N)N)NC(=O)[C@H](Cc2c[nH]cn2)NC(=O)[C@H](CO)NC(=O)[C@H](CCC(N)=O)NC(=O)[C@H](Cc2ccc(O)cc2)NC(=O)[C@H](CC(N)=O)NC(=O)[C@H](CC(N)=O)NC(=O)[C@@H]2CCCN2)CSSC[C@@H](C(=O)O)NC(=O)[C@H](CCCNC(=N)N)NC(=O)CNC(=O)[C@@H]2CCCN2C1=O [SEQ ID NO:11, PNNYQSHRHCKSIPGRC] (H-PNNYQSHRHCKSIPGRC-OH; disulfide 10-17; N-terminus and C-terminus assumed)
- MIC on M leuteus [1]: >75 µM

Compound: CC[C@H](C)[C@@H]1NC(=O)[C@H](CO)NC(=O)[C@H](CCCCN)NC(=O)[C@@H](N)CSSC[C@@H](C(=O)NCC(=O)O)NC(=O)[C@H](CCCNC(=N)N)NC(=O)CNC(=O)[C@@H]2CCCN2C1=O [SEQ ID NO:15, CKSIPGRCG] (H-CKSIPGRCG-OH; disulfide 1-8; N-terminus and C-terminus assumed)
- anti-microbial activity (in words) [2]: show no activity
- MIC on M leuteus [1]: >75 µM

Compound: C[C@@H](O)[C@@H]1NC(=O)[C@H](CO)NC(=O)[C@H](CO)NC(=O)[C@H](Cc2ccc(O)cc2)NC(=O)CNC(=O)CNC(=O)[C@@H](N)CSSC[C@@H](C(=O)NCC(=O)O)NC(=O)[C@H](CCCNC(=N)N)NC(=O)[C@H](Cc2ccc(O)cc2)NC(=O)[C@H](CO)NC1=O [SEQ ID NO:16, CGGYSSTSYRCG] (H-CGGYSSTSYRCG-OH; disulfide 1-11; N-terminus and C-terminus assumed)
- anti-microbial activity (in words) [2]: do not comprise any intrinsic activity
- MIC on M leuteus [1]: >75 µM

Compound: CC(C)C[C@@H]1NC(=O)[C@H](CCCNC(=N)N)NC(=O)[C@H](CCCCN)NC(=O)[C@H](Cc2c[nH]c3ccccc23)NC(=O)CNC(=O)CNC(=O)[C@@H](N)CSSC[C@@H](C(=O)O)NC(=O)[C@H](CCCNC(=N)N)NC1=O [SEQ ID NO:19, C^(S)GGWKRLRC^(S)] (H-CGGWKRLRC-OH; disulfide 1-9; N-terminus and C-terminus assumed)
- Staphylococcus aureus MBC [3]: 20 µM
- Staphylococcus aureus MIC [3]: 33 µM
- Micrococcus lysodeikticus MIC [4]: 13 µM

Compound: N=C(N)NCCC[C@@H]1NC(=O)[C@H](CCCCN)NC(=O)[C@H](CCCNC(=N)N)NC(=O)[C@H](CCCCN)NC(=O)[C@H](Cc2c[nH]c3ccccc23)NC(=O)CNC(=O)CNC(=O)[C@@H](N)CSSC[C@@H](C(=O)O)NC1=O [SEQ ID NO:20, C^(S)GGWKRKRC^(S)] (H-CGGWKRKRC-OH; disulfide 1-9; N-terminus and C-terminus assumed)
- Staphylococcus aureus MBC [3]: 16 µM
- Staphylococcus aureus MIC [3]: 23 µM
- Micrococcus lysodeikticus MIC [4]: 8 µM

Compound: N=C(N)NCCC[C@@H]1NC(=O)[C@H](CCCCN)NC(=O)[C@H](CCCNC(=N)N)NC(=O)[C@H](CCCCN)NC(=O)[C@H](Cc2c[nH]c3ccccc23)NC(=O)[C@H](CCCCN)NC(=O)[C@@H](N)CSSC[C@@H](C(=O)O)NC1=O [SEQ ID NO:22, C^(S)KWKRKRC^(S)] (H-CKWKRKRC-OH; disulfide 1-8; N-terminus and C-terminus assumed)
- Staphylococcus aureus MBC ([3]; Table III): 14.8 µM
- Staphylococcus aureus MIC ([3]; Table III): 6.6 µM
- Micrococcus lysodeikticus MBC ([4]; Table III): 14.8 µM
- Micrococcus lysodeikticus MIC ([4]; Table III): 14.8 µM

Compound: GFGSPNNYQS [SEQ ID NO:8, GFGSPNNYQS]
- MIC on M leuteus [1]: >75 µM

Compound: GFGSPNNYQSHRHSKSIPGR [SEQ ID NO:9]
- MIC on M leuteus [1]: >75 µM

Compound: NYQSHRHSKS [SEQ ID NO:13, NYQSHRHSKS]
- MIC on M leuteus [1]: >75 µM

Compound: PNNYQSHRHSKSIPGRGR [SEQ ID NO:10, PNNYQSHRHSKSIPGRGR]
- MIC on M leuteus [1]: >75 µM

Compound: PNNYQSHRHSKSIPGRS [SEQ ID NO:12, PNNYQSHRHSKSIPGRS]
- MIC on M leuteus [1]: >75 µM

Compound: RLRSTSYRSG [SEQ ID NO:18, RLRSTSYRSG]
- MIC on M leuteus [1]: >75 µM

Compound: SGGWHRLRS [SEQ ID NO:17, SGGWHRLRS]
- anti-microbial activity (in words) [2]: devoid of activity
- MIC on M leuteus [1]: >75 µM

Compound: SKSIPGRSG [SEQ ID NO:14, SKSIPGRSG]
- anti-microbial activity (in words) [2]: show no activity
- MIC on M leuteus [1]: >75 µM
